Measured values reported in patent US10787443B2, “RAF-degrading conjugate compounds” (ZAMBONI CHEM SOLUTIONS INC., priority 2017, dated 2020).
Values belong to the compound of their own block, whether it stands above or below them.

Tests used:
BRAF/VHL = BRAF/VHL (Homo sapiens, UniProt P15056+P40337); details: FIG. 12; various concentrations
[1] = test system: GST-Braf kinase domain and biotinylated E3 substrate adapter (VHL/EloB/EloC complex or CRBN318-425); test: Dimerization assay (AlphaScreen/AlphaLisa), RAF/E3 dimerization; type: binding; details: Table 17; relative value; compounds 4 fold serial dilutions from 20 μM
[2] = biological target: T1, CRAF (CRAF fusion protein with a fluorescent protein) in Calu-6 cells (Homo sapiens, UniProt P04049); test: Degradation assay, fluorescent CRAF fusion protein levels in Calu-6 cells (IncuCyte S3); type: cell-based; details: fluorescence/confluence
T1 construct: fluorescent protein (green); expressed in transfected cells; host or cells: Calu-6
T1 sequence (P04049 whole entry, the tested form may be a part): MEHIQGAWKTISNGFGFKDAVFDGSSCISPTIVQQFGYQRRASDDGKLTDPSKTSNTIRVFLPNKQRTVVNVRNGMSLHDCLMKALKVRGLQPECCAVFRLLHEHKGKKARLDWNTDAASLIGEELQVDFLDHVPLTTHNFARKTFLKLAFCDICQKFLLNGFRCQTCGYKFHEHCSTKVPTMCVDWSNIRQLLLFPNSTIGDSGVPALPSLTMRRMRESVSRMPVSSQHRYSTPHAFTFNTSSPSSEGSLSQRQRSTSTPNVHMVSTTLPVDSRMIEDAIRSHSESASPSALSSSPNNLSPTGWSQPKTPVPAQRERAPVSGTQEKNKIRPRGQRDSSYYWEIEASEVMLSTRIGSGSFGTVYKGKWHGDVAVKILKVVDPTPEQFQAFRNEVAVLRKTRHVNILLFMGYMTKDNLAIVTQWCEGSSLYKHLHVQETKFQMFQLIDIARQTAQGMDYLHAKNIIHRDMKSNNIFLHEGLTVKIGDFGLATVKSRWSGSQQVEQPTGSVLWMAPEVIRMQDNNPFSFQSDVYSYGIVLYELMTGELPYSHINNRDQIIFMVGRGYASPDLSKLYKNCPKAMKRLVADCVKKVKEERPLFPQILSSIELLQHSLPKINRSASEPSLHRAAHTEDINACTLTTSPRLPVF
Description: Calu-6 cells were stably transfected with a CRAF fusion protein with a fluorescent protein attached to the C-terminus of CRAF in order to monitor protein levels via fluorescence. Cells were seeded into a 96-well plate and allowed to adhere overnight. The next day cells are treated with compounds at the doses indicated in the table below and analyzed over time. Data was collected by monitoring Fluorescent CRAF protein levels an IncuCyte S3 Live Cell Analysis System (Essen BioScience). […] Calu6_CRAF fusion protein cells are imaged and analyzed using an Incucyte S3 live-cell analysis system (Essen Biosciences). Fluorescence signal is due to expression of the fluorescent protein covalently fused to the C-terminus of CRAF and degradation is assessed by measuring fluorescence/confluence (˜cell number) after treatment with compounds of the present disclosure. Phase contrast images are analyzed using Incucyte S3 software. Percent confluence is calculated using a phase contrast mask to quantify the area of the image occupied by the Calu6_CRAF fusion protein cells. Fluorescent images are analyzed using Incucyte S3 software. Green Corrected Units (GCU) is calculated using a fluorescence mask to quantify the area of the image occupied by green fluorescent signal and the intensity of the signal. […] As discussed above, degradation is measured as a function of fluorescence/confluence.

Chain of BRAF/VHL (P15056 457-717 limits assumed): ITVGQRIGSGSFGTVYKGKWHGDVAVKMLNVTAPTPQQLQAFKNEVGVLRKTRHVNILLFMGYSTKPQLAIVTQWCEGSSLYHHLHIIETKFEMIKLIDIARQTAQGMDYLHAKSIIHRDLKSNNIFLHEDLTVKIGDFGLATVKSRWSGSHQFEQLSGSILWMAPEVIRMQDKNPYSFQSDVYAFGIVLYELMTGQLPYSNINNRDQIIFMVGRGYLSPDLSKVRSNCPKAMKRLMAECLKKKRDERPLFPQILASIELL
Chain of BRAF/VHL (P40337 54-213 limits assumed): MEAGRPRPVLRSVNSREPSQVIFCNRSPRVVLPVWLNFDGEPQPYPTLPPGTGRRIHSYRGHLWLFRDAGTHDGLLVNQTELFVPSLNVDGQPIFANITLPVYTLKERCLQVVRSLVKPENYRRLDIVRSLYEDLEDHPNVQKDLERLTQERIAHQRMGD
Chain of BRAF/VHL (Q15370 whole entry partner, the tested form may be a part): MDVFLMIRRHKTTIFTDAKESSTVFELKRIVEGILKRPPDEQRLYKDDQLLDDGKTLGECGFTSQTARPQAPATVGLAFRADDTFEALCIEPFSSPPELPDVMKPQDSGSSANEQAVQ
Chain of BRAF/VHL (Q15369 17-112 partner limits assumed): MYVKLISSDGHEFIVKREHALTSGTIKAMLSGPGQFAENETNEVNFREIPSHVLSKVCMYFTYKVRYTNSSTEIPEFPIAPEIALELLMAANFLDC

Structure (SMILES): Cc1ccc(NC(=O)c2cccc(C(F)(F)F)c2)cc1-c1cnc(OCCOCc2cn(CCCCCC(=O)Nc3cccc4c3C(=O)N(C3CCC(=O)NC3=O)C4=O)nn2)c(N2CCOCC2)c1 (stereo not drawn) [Compound 2.012, N-(3-(6-(2-((1-(6-((2-(2,6-dioxopiperidin-3-yl)-1,3-dioxoisoindolin-4-yl)amino)-6-oxohexyl)-1H-1,2,3-triazol-4-yl)methoxy)ethoxy)-5-morpholinopyridin-3-yl)-4-methylphenyl)-3-(trifluoromethyl)benzamide]
RAF/E3 Dimerization [1]: +++ (50% > RAF/E3 Dimerization ≥ 25) | CRAF degradation in Calu6 cells over time ([2]; 3 μM, FIG. 4, 8, 9): CRAF degradation

Structure (SMILES): Cc1ncc(NC(=O)c2cccc(C(F)(F)F)c2)cc1-c1cnc(O[C@H]2CCO[C@@H](COCc3cn(CCCCCC(=O)N[C@@H](C(=O)N4C[C@H](O)C[C@H]4C(=O)N[C@@H](C)c4ccc(-c5scnc5C)cc4)C(C)(C)C)nn3)C2)c(N2CCOCC2)c1 (relative stereo) [Compound 2.004, (2S,4R)-1-((R)-3,3-dimethyl-2-(6-(4-((((2R*,4S*)-4-((2′-methyl-5-morpholino-5′-(3-(trifluoromethyl)benzamido)-[3,3′-bipyridin]-6-yl)oxy)tetrahydro-2H-pyran-2-yl)methoxy)methyl)-1H-1,2,3-triazol-1-yl)hexanamido)butanoyl)-4-hydroxy-N—((S)-1-(4-(4-methylthiazol-5-yl)phenyl)ethyl)pyrrolidine-2-carboxamide]
RAF/E3 Dimerization [1]: +++ (50% > RAF/E3 Dimerization ≥ 25) | CRAF degradation in Calu6 cells over time ([2]; 1.5 μM, FIG. 3): CRAF degradation

Further lines, results first:

BRAF/VHL dimerization (BRAF/VHL): does not cause dimerization
Structure (SMILES): Cc1ncc(NC(=O)c2cccc(C(F)(F)F)c2)cc1-c1cnc(OC2CCOCC2)c(N2CCOCC2)c1 [RAF709, reference compound]

RAF/E3 Dimerization [1]: ++ (25% > RAF/E3 Dimerization ≥ 5%) | CRAF degradation in Calu6 cells over time ([2]; 15 μM, FIG. 6): CRAF degradation
Structure (SMILES): Cc1ncc(NC(=O)c2cccc(C(F)(F)F)c2)cc1-c1cnc(OCCOCCOCCOCC(=O)NCCOCCCc2cccc3c2C(=O)N(C2CCC(=O)NC2=O)C3=O)c(N2CCOCC2)c1 (stereo not drawn) [Compound 2.021, N-(6′-((18-(2-(2,6-dioxopiperidin-3-yl)-1,3-dioxoisoindolin-4-yl)-11-oxo-3,6,9,15-tetraoxa-12-azaoctadecyl)oxy)-2-methyl-5′-morpholino-[3,3′-bipyridin]-5-yl)-3-(trifluoromethyl)-benzamide]

RAF/E3 Dimerization [1]: +++++ (RAF/E3 Dimerization ≥75%) | CRAF degradation in Calu6 cells over time ([2]; 5 μM, FIG. 11): CRAF degradation
Structure (SMILES): Cc1ncc(NC(=O)c2cccc(C(F)(F)F)c2)cc1-c1cnc(OCCOCCOCCOCCOCC(=O)NCCOCCCc2cccc3c2CN(C2CCC(=O)NC2=O)C3=O)c(N2CCOCC2)c1 (stereo not drawn) [Compound 2.016, N-(2-(3-(2-(2,6-dioxopiperidin-3-yl)-1-oxoisoindolin-4-yl)propoxy)ethyl)-14-((2′-methyl-5-morpholino-5′-(3-(trifluoromethyl)benzamido)-[3,3′-bipyridin]-6-yl)oxy)-3,6,9,12-tetraoxatetradecan-1-amide]
